# From PMC12316034, “Tetrahydromagnolol induces autophagic cell death by targeting the m^6A reader protein YTHDF2 and enhances the efficacy of anti-PD-1 immunotherapy in pancreatic cancer cells” (Theranostics, 2025)
# Molecular target: T1, YTHDF2 (YTH N6-methyladenosine RNA binding protein F2) (Homo sapiens, UniProt Q9Y5A9)
# T1 construct: recombinant protein of YTHDF2 (NCBI: 51441)
# T1 sequence (Q9Y5A9 2-579): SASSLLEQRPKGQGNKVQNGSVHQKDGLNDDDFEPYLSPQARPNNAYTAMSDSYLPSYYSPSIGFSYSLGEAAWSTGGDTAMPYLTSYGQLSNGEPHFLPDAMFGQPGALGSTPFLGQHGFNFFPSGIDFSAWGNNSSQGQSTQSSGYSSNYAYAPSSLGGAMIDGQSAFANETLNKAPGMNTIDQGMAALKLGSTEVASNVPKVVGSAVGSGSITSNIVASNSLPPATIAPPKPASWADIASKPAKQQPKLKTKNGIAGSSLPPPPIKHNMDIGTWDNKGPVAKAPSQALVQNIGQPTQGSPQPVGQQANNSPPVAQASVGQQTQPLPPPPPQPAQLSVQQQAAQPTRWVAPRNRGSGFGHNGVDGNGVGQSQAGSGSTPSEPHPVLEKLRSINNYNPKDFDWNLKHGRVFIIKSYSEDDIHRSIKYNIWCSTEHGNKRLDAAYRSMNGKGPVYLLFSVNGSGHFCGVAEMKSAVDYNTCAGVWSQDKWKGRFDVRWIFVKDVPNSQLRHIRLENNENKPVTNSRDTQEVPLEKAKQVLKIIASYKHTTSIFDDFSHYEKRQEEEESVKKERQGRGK
# Experiment: SPR on immobilised recombinant YTHDF2; also ITC, THM-bead pull-down, CETSA, LC-MS/MS
smiles,measurement,value
CCCc1ccc(O)c(-c2cc(CCC)ccc2O)c1 [Tetrahydromagnolol],Kd,22 µM
